{
  "source": "patent US20070218002A1",
  "about": "“Method for Detecting Alzheimer's Disease and other Forms of Dementia, and Measuring Their Progression” (priority 2004, published 2007)",
  "key": {"[1]": {"tested_on": "glucose metabolism", "test": "[F-18]FDG PET, relative standardized uptake value", "type": "in vivo, human", "conditions": "normalized to motor cortex", "protocol": "(§1) All scans were performed with ECAT HR or ECAT HR+ scanners (Siemens-CTI, Knoxville, Tenn.). The subjects were in the supine position with the imaging plane parallel to the orbito-meatal line and with their eyes open and ears unoccluded. A 20 min transmission scan was performed to correct PET data for radiation attenuation. 320-550 MBq of a PET tracer was injected as a bolus injection via the in-dwelling venous catheter, and the consecutive dynamic head PET scans were performed for 1 hour with [F-18]FDG or for 2 hours with [F-18]MPPF or with [F-18]FDDNP.\n(§2) All PET scans were decay corrected and reconstructed using filtered-back projection (Hann filter, 5 mm FWHM) with scatter and attenuation correction. The resulting images contained either 47 contiguous slices with 3.4 mm plane-to-pane separation (EXACT HR) or 63 contiguous slices with the plane-to-plane separation of 2.42 mm (EXACT HR+).\nThe dynamic [F-18]FDG PET images were summed (frames 30-60min) and the resulting image was used for the following analysis: ROIs were drawn bilaterally on transaxially oriented images on the gray matter signal in the frontal lobe, parietal lobe, lateral temporal lobe, and medial temporal lobe. In addition, one ROI was drawn on the posterior cingulated gyrus. ROIs were also drawn bilaterally on the motor cortex as a reference region. Values for each ROI were extracted and relative standardized uptake values were calculated for each region separately. The average of both ROIs from the same region was divided by the average of ROI values for the motor cortex. In a similar way, the ROI value for the posterior cingulated gyrus was normalized by the average value for motor cortex. Finally the global [F-18]FDG SUVR index was calculated for the parietal, medial temporal, and lateral temporal lobes."}, "[2]": {"molecular_target": "T1, serotonin 5-HT1A receptors (Homo sapiens, UniProt P08908)", "T1 construct": "from tissue; host or cells: living human brain (in vivo PET; hippocampus, raphe nuclei, cortical regions)", "T1 sequence (P08908 1-422)": "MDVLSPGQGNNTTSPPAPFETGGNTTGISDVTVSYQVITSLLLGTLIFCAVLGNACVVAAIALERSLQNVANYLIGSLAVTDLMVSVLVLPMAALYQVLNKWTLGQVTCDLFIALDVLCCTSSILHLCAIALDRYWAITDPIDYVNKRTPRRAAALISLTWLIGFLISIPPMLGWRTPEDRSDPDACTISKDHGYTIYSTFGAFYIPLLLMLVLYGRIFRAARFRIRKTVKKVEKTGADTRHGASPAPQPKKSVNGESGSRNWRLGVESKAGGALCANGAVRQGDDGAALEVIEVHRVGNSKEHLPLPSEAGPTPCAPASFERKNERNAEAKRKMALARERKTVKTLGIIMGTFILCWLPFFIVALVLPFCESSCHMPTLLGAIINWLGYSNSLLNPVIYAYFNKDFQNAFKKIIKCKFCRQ", "test": "[F-18]MPPF PET, Logan plot quantitation of binding potential", "type": "in vivo", "protocol": "as §1, §2\nAnatomical brain magnetic resonance scans were obtained using either a 1.5 Tesla magnet (General Electric-Signa, Milwaukee, Wis.) or a 3 Tesla magnet (General Electric-Signa) scanner. […] A double echo, fast spin echo series using a 24-cm field of view and 256×256 matrix with 3 mm/0 gap (TR=6000 [3T] and 2000 [1.5T]; TE=17/85 [3T] and 30/90 [1.5T]) An inter-modality image co-registration program (7) that uses image segmentation and simulation as preprocessing procedures was used to co-register PET and anatomical MRI images of each subject. Rules for ROI drawing were based on the identification of gyral and sulcal landmarks with respect to the atlas of Talairach and Tournoux (8).\nQuantitation of [F-18]MPPF binding was performed using Logan plot graphical analysis, using the cerebellum, an area largely devoid of 5-HT1A receptors, as the reference region (9). […] Tracer binding potential (BP=Bmax/Kd) parametric images were analyzed using ROIs drawn bilaterally on hippocampus, lateral temporal lobe, parietal lobe, frontal lobe, and posterior cingulate cortex, and a single ROI on the dorsal raphe nucleus using MRI as a guide. Total binding potentials (BPT, BPT=BP×volume) were determined for left and right hippocampus by multiplying the hippocampal BP values with the hippocampus volumes on co-registered MRI."}, "[3]": {"molecular_target": "T2, 5-HT1A receptors (Homo sapiens, UniProt P08908)", "T2 construct": "Glass mounted whole-hemisphere brain cryosections (100 μm thick), cut at the level of hippocampus; from tissue; host or cells: post-mortem human brain, whole-hemisphere cryosections at the level of the hippocampus", "T2 sequence (P08908 1-422)": "T1 sequence (P08908 1-422)", "test": "In vitro [F-18]MPPF digital autoradiography on whole-hemisphere brain cryosections", "type": "binding"}, "[4]": {"conditions": "AD subjects compared to control subjects"}},
  "note": "Where “and” joins values, the source holds several entries; their conditions need not be identical. Equal values may be shown once.",
  "data": [
    {"compound": "OC[C@H]1OC(O)[C@H]([18F])[C@@H](O)[C@@H]1O", "note": "(stereo partly drawn) [[F-18]FDG, 2-deoxy-2-[F-18]fluoro-D-glucose]", "values": [
      {"measurement": "FDG mean SUVR ± 1 SD, Frontal Lobe", "setting": "[1]; AD group", "result": "0.79 ± 0.07"},
      {"measurement": "FDG mean SUVR ± 1 SD, Global", "setting": "[1]; AD group", "result": "0.66 ± 0.04"},
      {"measurement": "FDG mean SUVR ± 1 SD, Lateral Temporal Lobe", "setting": "[1]; AD group", "result": "0.66 ± 0.07"},
      {"measurement": "FDG mean SUVR ± 1 SD, Medial Temporal Lobe", "setting": "[1]; AD group", "result": "0.66 ± 0.04"},
      {"measurement": "FDG mean SUVR ± 1 SD, Parietal Lobe", "setting": "[1]; AD group", "result": "0.67 ± 0.09"},
      {"measurement": "FDG mean SUVR ± 1 SD, Posterior Cingulate Gyrus", "setting": "[1]; AD group", "result": "0.79 ± 0.11"},
      {"measurement": "FDG mean SUVR ± 1 SD, Frontal Lobe", "setting": "[1]; CTRL group", "result": "0.95 ± 0.08"},
      {"measurement": "FDG mean SUVR ± 1 SD, Global", "setting": "[1]; CTRL group", "result": "0.80 ± 0.04"},
      {"measurement": "FDG mean SUVR ± 1 SD, Lateral Temporal Lobe", "setting": "[1]; CTRL group", "result": "0.86 ± 0.06"},
      {"measurement": "FDG mean SUVR ± 1 SD, Medial Temporal Lobe", "setting": "[1]; CTRL group", "result": "0.73 ± 0.02"},
      {"measurement": "FDG mean SUVR ± 1 SD, Parietal Lobe", "setting": "[1]; CTRL group", "result": "0.89 ± 0.06"},
      {"measurement": "FDG mean SUVR ± 1 SD, Posterior Cingulate Gyrus", "setting": "[1]; CTRL group", "result": "1.05±0.09"},
      {"measurement": "FDG mean SUVR ± 1 SD, Posterior Cingulate Gyrus", "setting": "[1]; CTRL group, listed as FDG", "result": "1.05 ± 0.09"},
      {"measurement": "FDG mean SUVR ± 1 SD, Frontal Lobe", "setting": "[1]; MCI group", "result": "0.90 ± 0.02"},
      {"measurement": "FDG mean SUVR ± 1 SD, Global", "setting": "[1]; MCI group", "result": "0.77 ± 0.04"},
      {"measurement": "FDG mean SUVR ± 1 SD, Lateral Temporal Lobe", "setting": "[1]; MCI group", "result": "0.81 ± 0.05"},
      {"measurement": "FDG mean SUVR ± 1 SD, Medial Temporal Lobe", "setting": "[1]; MCI group", "result": "0.69 ± 0.03"},
      {"measurement": "FDG mean SUVR ± 1 SD, Parietal Lobe", "setting": "[1]; MCI group", "result": "0.84 ± 0.05"},
      {"measurement": "FDG mean SUVR ± 1 SD, Posterior Cingulate Gyrus", "setting": "[1]; MCI group", "result": "0.89±0.06"},
      {"measurement": "FDG mean SUVR ± 1 SD, Posterior Cingulate Gyrus", "setting": "[1]; MCI group, listed as FDG", "result": "0.89 ± 0.06"}
    ]},
    {"compound": "COc1ccccc1N1CCN(CCN(C(=O)c2ccc([18F])cc2)c2ccccn2)CC1", "note": "[[F-18]MPPF, 4-[F-18]fluoro-N-{2-[1-(2-methoxyphenyl)-piperazinyl]ethyl}-N-(2-pyridinyl)benzamide]", "values": [
      {"measurement": "hippocampus total binding potential (BPT=BP×volume)", "setting": "[2]; AD", "result": "2.24±0.61"},
      {"measurement": "[F-18]MPPF mean BP ± 1 SD, Frontal Lobe", "setting": "[2]; AD group", "result": "0.41 ± 0.13"},
      {"measurement": "[F-18]MPPF mean BP ± 1 SD, Lateral Temporal Lobe", "setting": "[2]; AD group", "result": "0.73 ± 0.16"},
      {"measurement": "[F-18]MPPF mean BP ± 1 SD, Parietal Lobe", "setting": "[2]; AD group", "result": "0.48 ± 0.13"},
      {"measurement": "[F-18]MPPF mean BP ± 1 SD, Posterior Cingulate Gyrus", "setting": "[2]; AD group", "result": "0.56 ± 0.20"},
      {"measurement": "MPPF accumulation in the hippocampi", "setting": "[2]; AD patients in general", "result": "≤ 50", "unit": "%"},
      {"measurement": "drop in dorsal raphe nucleus BP values", "setting": "[2]; [4]", "result": 41, "unit": "%"},
      {"measurement": "drop in hippocampus BP values", "setting": "[2]; [4]", "result": 27, "unit": "%"},
      {"measurement": "hippocampus BPT lower compared with controls", "setting": "[2]; ADs", "result": 49, "unit": "%"},
      {"measurement": "[F-18]MPPF mean BP ± 1 SD, Frontal Lobe", "setting": "[2]; Control group", "result": "0.49 ± 0.15"},
      {"measurement": "[F-18]MPPF mean BP ± 1 SD, Hippocampus", "setting": "[2]; Control group", "result": "1.62±0.07"},
      {"measurement": "[F-18]MPPF mean BP ± 1 SD, Lateral Temporal Lobe", "setting": "[2]; Control group", "result": "0.82 ± 0.17"},
      {"measurement": "[F-18]MPPF mean BP ± 1 SD, Parietal Lobe", "setting": "[2]; Control group", "result": "0.63 ± 0.15"},
      {"measurement": "[F-18]MPPF mean BP ± 1 SD, Posterior Cingulate Gyrus", "setting": "[2]; Control group", "result": "0.68 ± 0.06"},
      {"measurement": "[F-18]MPPF mean BP ± 1 SD, Raphe Nuclei", "setting": "[2]; Control group", "result": "0.63±0.09"},
      {"measurement": "hippocampus total binding potential (BPT=BP×volume)", "setting": "[2]; MCI", "result": "3.14±0.34"},
      {"measurement": "[F-18]MPPF mean BP ± 1 SD, Frontal Lobe", "setting": "[2]; MCI group", "result": "0.44 ± 0.12"},
      {"measurement": "[F-18]MPPF mean BP ± 1 SD, Lateral Temporal Lobe", "setting": "[2]; MCI group", "result": "0.80 ± 0.11"},
      {"measurement": "[F-18]MPPF mean BP ± 1 SD, Parietal Lobe", "setting": "[2]; MCI group", "result": "0.43 ± 0.11"},
      {"measurement": "[F-18]MPPF mean BP ± 1 SD, Posterior Cingulate Gyrus", "setting": "[2]; MCI group", "result": "0.56 ± 0.12"},
      {"measurement": "[F-18]MPPF mean BP ± 1 SD, Raphe Nuclei", "setting": "[2]; MCI group", "result": "0.52 ± 0.11"},
      {"measurement": "mean hippocampus BP value lower than in controls", "setting": "[2]; MCI subjects", "result": 13, "unit": "%"},
      {"measurement": "hippocampus BPT lower compared with controls", "setting": "[2]; MCIs", "result": 24, "unit": "%"},
      {"measurement": "hippocampus total binding potential (BPT=BP×volume)", "setting": "[2]; controls", "result": "4.40±0.22"},
      {"measurement": "binding ratio (BR), outer layers of gray matter in the inferior temporal gyrus", "setting": "[3]; AD cases (individual)", "result": "1.13 and 1.16"},
      {"measurement": "hippocampal binding ratio (BR), CA1 field/subiculum relative to inner layer of inferior temporal gyrus gray matter", "setting": "[3]; AD samples (individual)", "result": "1.03 and 1.18"},
      {"measurement": "drop in in vitro binding, hippocampus", "setting": "[3]; AD vs control samples", "result": "60-70%"},
      {"measurement": "hippocampal binding ratio (BR), CA1 field/subiculum relative to inner layer of inferior temporal gyrus gray matter", "setting": "[3]; control samples (individual)", "result": "3.29 and 3.00 and 2.98"},
      {"measurement": "binding ratio (BR), outer layers of gray matter in the inferior temporal gyrus", "setting": "[3]; non-demented cases (individual)", "result": "1.46 and 1.40 and 2.01"}
    ]}
  ]
}
